In US20240269139A1, “COMPOUNDS FOR TARGETED PROTEIN DEGRADATION OF KINASES” (DANA-FARBER CANCER INSTITUTE, INC., priority 2020, published 2024):
Like-named read-outs stand apart in the source and are kept apart here.

Columns and labels:
Format in all cases: cell-based
[1] = biological target: protein kinases (human kinome) (Homo sapiens, UniProt P51451); details: for logFC BLK: BLK (P51451), direction down; for logFC of BLK: BLK P51451, experiment wp016; for logFC of BLK (P51451): down
[2] = biological target: protein kinases (human kinome) (Homo sapiens, UniProt P30291); details: for logFC of WEE1: WEE1 P30291-1
Sequence of protein kinases (human kinome) (Homo sapiens, UniProt P30291) (P30291 whole entry): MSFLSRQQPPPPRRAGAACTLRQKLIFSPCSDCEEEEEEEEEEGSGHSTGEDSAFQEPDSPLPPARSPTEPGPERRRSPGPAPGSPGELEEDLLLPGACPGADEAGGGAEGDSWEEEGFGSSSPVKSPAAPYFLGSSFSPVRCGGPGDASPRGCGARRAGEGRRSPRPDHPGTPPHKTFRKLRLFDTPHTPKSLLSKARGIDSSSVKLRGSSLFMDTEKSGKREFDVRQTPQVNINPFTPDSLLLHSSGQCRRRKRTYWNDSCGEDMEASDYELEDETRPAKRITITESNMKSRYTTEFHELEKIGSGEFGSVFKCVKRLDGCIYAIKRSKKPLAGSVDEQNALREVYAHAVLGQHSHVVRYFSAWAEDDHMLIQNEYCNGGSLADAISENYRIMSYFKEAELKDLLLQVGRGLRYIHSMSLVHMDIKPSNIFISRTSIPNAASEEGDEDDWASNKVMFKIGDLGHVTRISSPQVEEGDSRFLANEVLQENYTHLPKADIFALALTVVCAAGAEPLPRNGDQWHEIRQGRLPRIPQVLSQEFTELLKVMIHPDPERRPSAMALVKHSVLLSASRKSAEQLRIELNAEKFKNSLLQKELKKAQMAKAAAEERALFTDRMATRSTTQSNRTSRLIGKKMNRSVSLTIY

[3] = tested on: protein kinases (human kinome); details: for logFC ABL1: ABL1 (P00519-2); for logFC of SRC: Accession P12931-2; for logFC CSNK1D: Accession P48730-2; for logFC CDK12: Accession Q9NYV4-2
[4] = AURKB Q96GD4-5, experiment wp103
[5] = AURKB Q96GD4-5, experiment wp105
[6] = AURKB Q96GD4-5, experiment wp107
[7] = AURKB Q96GD4-5, experiment wp133, 1 hr
[8] = AURKB Q96GD4-5, experiment wp133, 2 hr
[9] = AURKB Q96GD4-5, experiment wp133, 4 hr

Sequence of protein kinases (human kinome) (Homo sapiens, UniProt P51451) (P51451 whole entry): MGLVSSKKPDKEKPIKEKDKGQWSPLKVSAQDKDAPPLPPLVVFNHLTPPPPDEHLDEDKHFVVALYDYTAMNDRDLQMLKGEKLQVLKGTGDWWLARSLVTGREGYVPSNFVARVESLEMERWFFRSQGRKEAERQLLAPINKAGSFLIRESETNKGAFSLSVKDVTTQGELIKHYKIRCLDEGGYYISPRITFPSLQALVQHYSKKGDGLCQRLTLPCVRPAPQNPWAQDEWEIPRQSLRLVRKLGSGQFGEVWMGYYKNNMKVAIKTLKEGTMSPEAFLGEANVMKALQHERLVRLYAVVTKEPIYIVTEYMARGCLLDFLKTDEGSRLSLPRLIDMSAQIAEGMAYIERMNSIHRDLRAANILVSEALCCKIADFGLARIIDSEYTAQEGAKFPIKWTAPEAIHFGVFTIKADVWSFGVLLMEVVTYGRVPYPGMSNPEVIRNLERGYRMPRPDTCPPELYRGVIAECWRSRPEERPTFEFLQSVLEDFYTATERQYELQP

Question: What does the source list for CC(C)S(=O)(=O)c1ccccc1Nc1nc(Nc2ccc(N3CCN(CCOCCNC(=O)CNc4cccc5c4C(=O)N(C4CCC(=O)NC4=O)C5=O)CC3)cc2)ncc1Cl (centres unmarked) [SK.3.91]?
Answer: logFC BLK ([1]; experiment wp103): −1.625; logFC BLK ([1]; experiment wp107): −1.649; logFC BLK ([1]; experiment wp133, 1 hr): −0.3727; logFC BLK ([1]; experiment wp133, 2 hr): −0.8217; logFC BLK ([1]; experiment wp133, 4 hr): −1.49; logFC BLK ([1]; experiment wp160, 2 hr): −0.8744; logFC BLK ([1]; experiment wp160, 4 hr): −1.678; logFC of BLK [1]: −1.446; logFC of BLK ([1]; 1 uM): −1.977; logFC of BLK (P51451) ([1]; Experiment wp016, 1 uM): −1.977; logFC of BLK (P51451) ([1]; Experiment wp016): −1.446; logFC of BLK (P51451) ([1]; Experiment wp103): −1.625; logFC of BLK (P51451) ([1]; Experiment wp107): −1.649; logFC of BLK (P51451) ([1]; Experiment wp133, 1 hr): −0.3727; logFC of BLK (P51451) ([1]; Experiment wp133, 2 hr): −0.8217; logFC of BLK (P51451) ([1]; Experiment wp133, 4 hr): −1.49; logFC of BLK (P51451) ([1]; Experiment wp160, 2 hr): −0.8744; logFC of BLK (P51451) ([1]; Experiment wp160, 4 hr): −1.678; logFC WEE1 (P30291-1) ([2]; Experiment wp160, 2 hr): −1.201; logFC WEE1 (P30291-1) ([2]; Experiment wp172): −0.6853; logFC of WEE1 ([2]; experiment wp103): −1.371; logFC of WEE1 ([2]; experiment wp105): −1.229; logFC of WEE1 ([2]; experiment wp107): −2.329; logFC of WEE1 ([2]; experiment wp133, 1 hr): −0.4866; logFC of WEE1 ([2]; experiment wp133, 2 hr): −1.21; logFC of WEE1 ([2]; experiment wp133, 4 hr): −2.314; logFC of WEE1 ([2]; experiment wp160, 1 hr): −0.5503; logFC of WEE1 ([2]; experiment wp160, 2 hr): −1.201; logFC of WEE1 ([2]; experiment wp160, 4 hr): −1.994; logFC of WEE1 ([2]; experiment wp172): −0.6853; logFC WEE1 (P30291-1) ([2]; experiment wp016): −1.278; logFC WEE1 (P30291-1) ([2]; experiment wp016, 1 uM): −2.684; logFC WEE1 (P30291-1) ([2]; experiment wp103): −1.371; logFC WEE1 (P30291-1) ([2]; experiment wp105): −1.229; logFC WEE1 (P30291-1) ([2]; experiment wp107): −2.329; logFC WEE1 (P30291-1) ([2]; experiment wp133, 1 hr): −0.4866; logFC WEE1 (P30291-1) ([2]; experiment wp133, 2 hr): −1.21; logFC WEE1 (P30291-1) ([2]; experiment wp133, 4 hr): −2.314; logFC WEE1 (P30291-1) ([2]; experiment wp160, 1 hr): −0.5503; logFC WEE1 (P30291-1) ([2]; experiment wp160, 4 hr): −1.994; logFC ABL1 ([3]; experiment wp016, 1 uM): −0.3875; logFC ABL1 ([3]; experiment wp105): −0.333; logFC ABL1 ([3]; experiment wp107): −0.4711; logFC ABL1 ([3]; experiment wp133, 4 hr): −0.3801; logFC [3, 4]: −0.3966; logFC AURKB [3, 4]: −0.3966; logFC [3, 5]: −0.7004; logFC AURKB [3, 5]: −0.7004; logFC [3, 6]: −0.443; logFC AURKB [3, 6]: −0.443; logFC [3, 7]: −0.4923; logFC AURKB [3, 7]: −0.4923; logFC [3, 8]: −0.5333; logFC AURKB [3, 8]: −0.5333; logFC [3, 9]: −0.8007; logFC AURKB [3, 9]: −0.8007; logFC BUB1B ([3]; Accession O60566-3, experiment wp016, 1 uM, direction down): −0.4685; logFC BUB1B ([3]; Accession O60566-3, experiment wp103, direction down): −0.3983; logFC BUB1B ([3]; Accession O60566-3, experiment wp107, direction down): −0.5037; logFC BUB1B ([3]; Accession O60566-3, experiment wp133, 1 hr, direction down): −0.4083; logFC BUB1B ([3]; Accession O60566-3, experiment wp133, 2 hr, direction down): −0.4195; logFC BUB1B ([3]; Accession O60566-3, experiment wp133, 4 hr, direction down): −0.5871; logFC of SRC ([3]; experiment wp016): −0.3847; logFC of SRC ([3]; experiment wp016, 1 uM): −0.8428; logFC of SRC ([3]; experiment wp103): −0.5004; logFC of SRC ([3]; experiment wp105): −0.3464; logFC of SRC ([3]; experiment wp107): −0.7782; logFC of SRC ([3]; experiment wp133, 4 hr): −0.6408; logFC CSNK1D ([3]; experiment wp114, direction down): −0.3991; logFC CSNK1D ([3]; experiment wp160, 4 hr, direction down): −0.3373; logFC CDK12 ([3]; experiment wp107): −1.042; logFC CDK12 ([3]; experiment wp160, 2 hr): −0.4558; logFC CDK12 ([3]; experiment wp160, 4 hr): −0.8448; logFC BUB1B ([3]; BUB1B (O60566-3), experiment wp016, 1 uM): −0.4685; logFC BUB1B ([3]; BUB1B (O60566-3), experiment wp103): −0.3983; logFC BUB1B ([3]; BUB1B (O60566-3), experiment wp107): −0.5037; logFC BUB1B ([3]; BUB1B (O60566-3), experiment wp133, 1 hr): −0.4083; logFC BUB1B ([3]; BUB1B (O60566-3), experiment wp133, 2 hr): −0.4195; logFC BUB1B ([3]; BUB1B (O60566-3), experiment wp133, 4 hr): −0.5871; logFC ([3]; CDK9 (P50750-2) protein abundance, degrader vs DMSO, 1 uM, down): −1.356; logFC ([3]; CDK9 (P50750-2) protein abundance, degrader vs DMSO, 2 hr, down): −0.3971; logFC ([3]; CDK9 (P50750-2) protein abundance, degrader vs DMSO, 4 hr, down): −1.037; logFC ([3]; CDK18 (Q07002-3), experiment wp105): −1.233
